Laboratory results as given in patent publication US20240285634A1, “COMPOUND AND METHOD FOR TREATING CHEMOTHERAPY-ASSOCIATED GASTROINTESTINAL SIDE EFFECTS” (ONQUALITY PHARMACEUTICALS CHINA LTD., priority 2021, published 2024).

System: Chemotherapeutic agent-caused constipation models of Balb/c mice
Assay: Relieving effect on constipation caused by a chemotherapeutic agent (Examples 202-364)
Type: in vivo
Excerpt: Construction of mouse animal models: Chemotherapeutic agent-caused constipation models of Balb/c mice were constructed according to the administration mode and frequency of the chemotherapeutic agent as shown in Table 4. […] Thus, chemotherapeutic agent-caused constipation models of mice are very good models to mimic constipation caused by the chemotherapeutic agent.
Balb/c mice were fed for 1 week, and then divided into groups. The experiment was divided into a control group, a chemotherapeutic agent group, and a group of the compound as shown in Formula I, each of which comprised 10 mice, to perform the administration experiment, for which the administration dosage, mode, time and frequency were shown in Table 4. The control group: being injected or intragastrically administered with the same solvent as that used in the group of the compound as shown in Formula I (the administration mode and time were shown in Table 4), and then being injected or intragastrically administered with the same solvent as that used in the chemotherapeutic agent group (the administration mode was shown in Table 4); the chemotherapeutic agent group: being injected or intragastrically administered with the same solvent as that used in the group of the compound as shown in Formula I (the administration mode and time was shown in Table 4), and then being injected or intragastrically administered with the chemotherapeutic agent (the type, administration mode and dosage were shown in Table 4); the group of the compound as shown in Formula I: being injected or intragastrically administered with the compound as shown in Formula I (the administration mode and time was shown in Table 4), and then being administered with the chemotherapeutic agent (the administration mode and dosage were shown in Table 4).
The feces reduction rate was calculated with reference to the method of Ji Eun Kim (Lab Anim Res. 2016 December; 32(4): 231-240.). Feces reduction rate (%)=(the control group−the chemotherapeutic agent group or the group of the compound as shown in Formula I)/the control group*100%
It is regarded as effective remission when the feces reduction rate of mice in the group of the compound as shown in Formula I is reduced compared with that in the chemotherapeutic agent group.
The feces amount of mice within 3 hours was observed and recorded every day. At the end of the experiment, the number of mice in the group of the compound as shown in Formula I whose feces reduction rate was lower than that of mice in the chemotherapeutic agent group was recorded. Table 4 lists various animal experiment combinations of chemotherapeutic agents and the compound as shown in Formula I, as well as the corresponding experimental results.

Measured: Relative remission rate (%)

CN1CCN(c2ccc(Nc3ncc4cc5n(c4n3)C3(CCCCC3)CNC5=O)nc2)CC1 [Compound I, Trilaciclib]
0%: Example 227, Fluorouracil (5-Fu) intraperitoneal injection 175 mg/kg single, compound intravenous injection 100 mg/kg, frequency 8, 48 h before chemotherapeutic agent, cycle 10 days
40%: Example 202, Fluorouracil (5-Fu) intraperitoneal injection 175 mg/kg single, compound intravenous injection 100 mg/kg, frequency 8, 0.5 h before chemotherapeutic agent, cycle 10 days | Example 204, Fluorouracil (5-Fu) intraperitoneal injection 175 mg/kg single, compound intravenous injection 100 mg/kg, frequency 8, 2 h before chemotherapeutic agent, cycle 10 days | Example 205, Fluorouracil (5-Fu) intraperitoneal injection 175 mg/kg single, compound intravenous injection 100 mg/kg, frequency 8, 3 h before chemotherapeutic agent, cycle 10 days | Example 210, Fluorouracil (5-Fu) intraperitoneal injection 175 mg/kg single, compound intravenous injection 100 mg/kg, frequency 8, 8 h before chemotherapeutic agent, cycle 10 days | Example 211, Fluorouracil (5-Fu) intraperitoneal injection 175 mg/kg single, compound intravenous injection 100 mg/kg, frequency 8, 9 h before chemotherapeutic agent, cycle 10 days | Example 217, Fluorouracil (5-Fu) intraperitoneal injection 175 mg/kg single, compound intravenous injection 100 mg/kg, frequency 8, 12 h before chemotherapeutic agent, cycle 10 days | Example 220, Fluorouracil (5-Fu) intraperitoneal injection 175 mg/kg single, compound intravenous injection 100 mg/kg, frequency 8, 13 h before chemotherapeutic agent, cycle 10 days | Example 221, Fluorouracil (5-Fu) intraperitoneal injection 175 mg/kg single, compound intravenous injection 100 mg/kg, frequency 8, 14 h before chemotherapeutic agent, cycle 10 days | Example 229, Fluorouracil (5-Fu) intravenous injection 250 mg/kg single, compound intraperitoneal injection 100 mg/kg single, 1 h before chemotherapeutic agent, cycle 10 days | Example 230, Fluorouracil (5-Fu) intravenous injection 250 mg/kg single, compound intraperitoneal injection 100 mg/kg single, 2 h before chemotherapeutic agent, cycle 10 days | Example 236, Fluorouracil (5-Fu) intravenous injection 250 mg/kg single, compound intraperitoneal injection 100 mg/kg single, 14 h before chemotherapeutic agent, cycle 10 days | Example 237, Fluorouracil (5-Fu) intravenous injection 250 mg/kg single, compound intraperitoneal injection 100 mg/kg single, 16 h before chemotherapeutic agent, cycle 10 days | Example 287, Irinotecan (CPT-11) intraperitoneal injection 260 mg/kg single, compound intravenous injection 150 mg/kg single, 1 h before chemotherapeutic agent, cycle 8 days | Example 290, Irinotecan (CPT-11) intraperitoneal injection 260 mg/kg single, compound intravenous injection 150 mg/kg single, 4 h before chemotherapeutic agent, cycle 8 days | Example 292, Irinotecan (CPT-11) intraperitoneal injection 260 mg/kg single, compound intravenous injection 150 mg/kg single, 6 h before chemotherapeutic agent, cycle 8 days | Example 298, Irinotecan (CPT-11) intraperitoneal injection 260 mg/kg single, compound intravenous injection 150 mg/kg single, 12 h before chemotherapeutic agent, cycle 8 days | Example 299, Irinotecan (CPT-11) intraperitoneal injection 260 mg/kg single, compound intravenous injection 150 mg/kg single, 14 h before chemotherapeutic agent, cycle 8 days | Example 300, Irinotecan (CPT-11) intraperitoneal injection 260 mg/kg single, compound intravenous injection 150 mg/kg single, 16 h before chemotherapeutic agent, cycle 8 days
50%: Example 208, Fluorouracil (5-Fu) intraperitoneal injection 175 mg/kg single, compound intravenous injection 100 mg/kg, frequency 8, 6 h before chemotherapeutic agent, cycle 10 days | Example 209, Fluorouracil (5-Fu) intraperitoneal injection 175 mg/kg single, compound intravenous injection 100 mg/kg, frequency 8, 7 h before chemotherapeutic agent, cycle 10 days | Example 213, Fluorouracil (5-Fu) intraperitoneal injection 175 mg/kg single, compound intravenous injection 100 mg/kg, frequency 8, 11 h before chemotherapeutic agent, cycle 10 days | Example 222, Fluorouracil (5-Fu) intraperitoneal injection 175 mg/kg single, compound intravenous injection 100 mg/kg, frequency 8, 16 h before chemotherapeutic agent, cycle 10 days | Example 233, Fluorouracil (5-Fu) intravenous injection 250 mg/kg single, compound intraperitoneal injection 100 mg/kg single, 8 h before chemotherapeutic agent, cycle 10 days | Example 234, Fluorouracil (5-Fu) intravenous injection 250 mg/kg single, compound intraperitoneal injection 100 mg/kg single, 10 h before chemotherapeutic agent, cycle 10 days | Example 238, Fluorouracil (5-Fu) intravenous injection 250 mg/kg single, compound intraperitoneal injection 100 mg/kg single, 18 h before chemotherapeutic agent, cycle 10 days | Example 239, Fluorouracil (5-Fu) intravenous injection 250 mg/kg single, compound intraperitoneal injection 100 mg/kg single, 20 h before chemotherapeutic agent, cycle 10 days | Example 240, Fluorouracil (5-Fu) intravenous injection 250 mg/kg single, compound intraperitoneal injection 100 mg/kg single, 24 h before chemotherapeutic agent, cycle 10 days | Example 288, Irinotecan (CPT-11) intraperitoneal injection 260 mg/kg single, compound intravenous injection 150 mg/kg single, 2 h before chemotherapeutic agent, cycle 8 days | Example 289, Irinotecan (CPT-11) intraperitoneal injection 260 mg/kg single, compound intravenous injection 150 mg/kg single, 3 h before chemotherapeutic agent, cycle 8 days | Example 293, Irinotecan (CPT-11) intraperitoneal injection 260 mg/kg single, compound intravenous injection 150 mg/kg single, 7 h before chemotherapeutic agent, cycle 8 days | Example 296, Irinotecan (CPT-11) intraperitoneal injection 260 mg/kg single, compound intravenous injection 150 mg/kg single, 10 h before chemotherapeutic agent, cycle 8 days | Example 297, Irinotecan (CPT-11) intraperitoneal injection 260 mg/kg single, compound intravenous injection 150 mg/kg single, 11 h before chemotherapeutic agent, cycle 8 days | Example 301, Irinotecan (CPT-11) intraperitoneal injection 260 mg/kg single, compound intravenous injection 150 mg/kg single, 18 h before chemotherapeutic agent, cycle 8 days | Example 302, Irinotecan (CPT-11) intraperitoneal injection 260 mg/kg single, compound intravenous injection 150 mg/kg single, 20 h before chemotherapeutic agent, cycle 8 days
60%: Example 218, Fluorouracil (5-Fu) intraperitoneal injection 175 mg/kg single, compound intravenous injection 150 mg/kg, frequency 8, 12 h before chemotherapeutic agent, cycle 10 days | Example 219, Fluorouracil (5-Fu) intraperitoneal injection 175 mg/kg single, compound intravenous injection 240 mg/kg, frequency 8, 12 h before chemotherapeutic agent, cycle 10 days | Example 223, Fluorouracil (5-Fu) intraperitoneal injection 175 mg/kg single, compound intravenous injection 100 mg/kg, frequency 8, 18 h before chemotherapeutic agent, cycle 10 days | Example 224, Fluorouracil (5-Fu) intraperitoneal injection 175 mg/kg single, compound intravenous injection 100 mg/kg, frequency 8, 20 h before chemotherapeutic agent, cycle 10 days | Example 231, Fluorouracil (5-Fu) intravenous injection 250 mg/kg single, compound intraperitoneal injection 100 mg/kg single, 4 h before chemotherapeutic agent, cycle 10 days | Example 232, Fluorouracil (5-Fu) intravenous injection 250 mg/kg single, compound intraperitoneal injection 100 mg/kg single, 6 h before chemotherapeutic agent, cycle 10 days | Example 294, Irinotecan (CPT-11) intraperitoneal injection 260 mg/kg single, compound intravenous injection 150 mg/kg single, 8 h before chemotherapeutic agent, cycle 8 days
20%: Example 207, Fluorouracil (5-Fu) intraperitoneal injection 175 mg/kg single, compound intravenous injection 100 mg/kg, frequency 8, 5 h before chemotherapeutic agent, cycle 10 days | Example 214, Fluorouracil (5-Fu) intraperitoneal injection 175 mg/kg single, compound intravenous injection 12.5 mg/kg, frequency 8, 12 h before chemotherapeutic agent, cycle 10 days
30%: Example 203, Fluorouracil (5-Fu) intraperitoneal injection 175 mg/kg single, compound intravenous injection 100 mg/kg, frequency 8, 1 h before chemotherapeutic agent, cycle 10 days | Example 206, Fluorouracil (5-Fu) intraperitoneal injection 175 mg/kg single, compound intravenous injection 100 mg/kg, frequency 8, 4 h before chemotherapeutic agent, cycle 10 days | Example 212, Fluorouracil (5-Fu) intraperitoneal injection 175 mg/kg single, compound intravenous injection 100 mg/kg, frequency 8, 10 h before chemotherapeutic agent, cycle 10 days | Example 215, Fluorouracil (5-Fu) intraperitoneal injection 175 mg/kg single, compound intravenous injection 25 mg/kg, frequency 8, 12 h before chemotherapeutic agent, cycle 10 days | Example 216, Fluorouracil (5-Fu) intraperitoneal injection 175 mg/kg single, compound intravenous injection 50 mg/kg, frequency 8, 12 h before chemotherapeutic agent, cycle 10 days | Example 225, Fluorouracil (5-Fu) intraperitoneal injection 175 mg/kg single, compound intravenous injection 100 mg/kg, frequency 8, 22 h before chemotherapeutic agent, cycle 10 days | Example 226, Fluorouracil (5-Fu) intraperitoneal injection 175 mg/kg single, compound intravenous injection 100 mg/kg, frequency 8, 24 h before chemotherapeutic agent, cycle 10 days | Example 228, Fluorouracil (5-Fu) intravenous injection 250 mg/kg single, compound intraperitoneal injection 100 mg/kg single, 0.5 h before chemotherapeutic agent, cycle 10 days | Example 291, Irinotecan (CPT-11) intraperitoneal injection 260 mg/kg single, compound intravenous injection 150 mg/kg single, 5 h before chemotherapeutic agent, cycle 8 days
70%: Example 235, Fluorouracil (5-Fu) intravenous injection 250 mg/kg single, compound intraperitoneal injection 100 mg/kg single, 12 h before chemotherapeutic agent, cycle 10 days | Example 295, Irinotecan (CPT-11) intraperitoneal injection 260 mg/kg single, compound intravenous injection 150 mg/kg single, 9 h before chemotherapeutic agent, cycle 8 days
